Assays:
[1] = biological target: T1, IKZF1 (Homo sapiens, UniProt Q13422); experiment: IKZF1 Degradation Assay, HiBiT Method; format: cell-based; details: NCIH929 cells expressing HiBiT-tagged IKZF1, 6 hours, top concentration 10 μM
T1 construct: endogenously expressing IKZF1 with HiBiT fusion tag via CRISPR
Description: Assay 2. IKZF1 Degradation Assay, HiBiT Method
Selected compounds of this disclosure were tested in an IKZF1 degradation assay using the HiBiT Method.
RPMI no-phenol red medium and fetal bovine serum (FBS) were purchased from Gibco (Grand Island, NY, USA). Nano-Glo® HiBiT Lytic Assay System was purchased from Promega (Madison, WI, USA). […] Cell culture flasks and 384-well microplates were acquired from VWR (Radnor, PA, USA).
IKZF1 degradation was determined based on quantification of luminescent signal using Nano-Glo® HiBiT Lytic Assay kit. […] NCIH929 cells expressing HiBiT-tagged IKZF1 were added into 384-well plates in RPMI medium containing 10% FBS and 0.05 mM 2-mercaptoethanol at a cell density of 15000 cells per well. The plates were kept at 37° C. with 5% CO2 for 6 hours. Cells treated in the absence of the test compound were the negative control and wells containing media only were the positive control. After 6-hour incubation, Nano-Glo® HiBiT Lytic Assay reagents were added to the designated wells. Luminescence was acquired on EnVision® Multilabel Reader (PerkinElmer, Santa Clara, CA, USA).

[2] = biological target: T2, IRAK4 (Homo sapiens, UniProt Q9NWZ3); experiment: IRAK4 Degradation Assay, HiBiT Method; format: cell-based; details: 293T cells expressing HiBiT-tagged IRAK4, 6 hours
T2 construct: 293Tcells expressing HiBiT-tagged IRAK4 were then added into 384-well plates
T2 sequence (Q9NWZ3 1-460): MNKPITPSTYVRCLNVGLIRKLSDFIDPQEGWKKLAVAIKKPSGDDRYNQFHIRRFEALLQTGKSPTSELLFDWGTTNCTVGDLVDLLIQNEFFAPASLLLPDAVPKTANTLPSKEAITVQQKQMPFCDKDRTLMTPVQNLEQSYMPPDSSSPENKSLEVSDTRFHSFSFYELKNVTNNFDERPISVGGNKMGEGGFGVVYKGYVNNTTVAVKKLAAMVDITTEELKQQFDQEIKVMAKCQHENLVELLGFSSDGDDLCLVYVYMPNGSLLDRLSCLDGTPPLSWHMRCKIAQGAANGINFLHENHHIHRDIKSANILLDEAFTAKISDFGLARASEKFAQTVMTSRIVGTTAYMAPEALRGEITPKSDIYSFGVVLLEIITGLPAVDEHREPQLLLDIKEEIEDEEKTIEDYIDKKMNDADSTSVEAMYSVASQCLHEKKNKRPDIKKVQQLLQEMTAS
Method in brief: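 Luminescent read-out with Nano-Glo HiBiT lytic reagent after 6 h compound exposure at 37 °C. Cells were HiBiT-IRAK4 knock-in 293T (C-terminal tag), 10,000 per well. Compounds ran as 11-point half-log dilutions from […] highest dose, duplicate wells; DMSO served as negative control.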

T1 sequence (Q96SW2 whole entry partner, the tested form may be a part): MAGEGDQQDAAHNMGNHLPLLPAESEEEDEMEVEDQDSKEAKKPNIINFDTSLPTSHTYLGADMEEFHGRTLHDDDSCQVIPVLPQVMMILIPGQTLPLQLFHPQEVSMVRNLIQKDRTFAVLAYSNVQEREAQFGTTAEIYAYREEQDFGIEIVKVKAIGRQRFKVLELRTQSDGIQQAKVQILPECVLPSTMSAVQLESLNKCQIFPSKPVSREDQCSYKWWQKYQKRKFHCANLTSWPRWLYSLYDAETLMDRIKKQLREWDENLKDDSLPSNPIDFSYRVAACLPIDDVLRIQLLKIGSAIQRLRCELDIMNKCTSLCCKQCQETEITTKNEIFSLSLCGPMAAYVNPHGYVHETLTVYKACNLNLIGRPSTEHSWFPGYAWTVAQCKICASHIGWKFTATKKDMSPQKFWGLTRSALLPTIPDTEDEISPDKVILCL
T1 sequence (Q16531 whole entry partner, the tested form may be a part): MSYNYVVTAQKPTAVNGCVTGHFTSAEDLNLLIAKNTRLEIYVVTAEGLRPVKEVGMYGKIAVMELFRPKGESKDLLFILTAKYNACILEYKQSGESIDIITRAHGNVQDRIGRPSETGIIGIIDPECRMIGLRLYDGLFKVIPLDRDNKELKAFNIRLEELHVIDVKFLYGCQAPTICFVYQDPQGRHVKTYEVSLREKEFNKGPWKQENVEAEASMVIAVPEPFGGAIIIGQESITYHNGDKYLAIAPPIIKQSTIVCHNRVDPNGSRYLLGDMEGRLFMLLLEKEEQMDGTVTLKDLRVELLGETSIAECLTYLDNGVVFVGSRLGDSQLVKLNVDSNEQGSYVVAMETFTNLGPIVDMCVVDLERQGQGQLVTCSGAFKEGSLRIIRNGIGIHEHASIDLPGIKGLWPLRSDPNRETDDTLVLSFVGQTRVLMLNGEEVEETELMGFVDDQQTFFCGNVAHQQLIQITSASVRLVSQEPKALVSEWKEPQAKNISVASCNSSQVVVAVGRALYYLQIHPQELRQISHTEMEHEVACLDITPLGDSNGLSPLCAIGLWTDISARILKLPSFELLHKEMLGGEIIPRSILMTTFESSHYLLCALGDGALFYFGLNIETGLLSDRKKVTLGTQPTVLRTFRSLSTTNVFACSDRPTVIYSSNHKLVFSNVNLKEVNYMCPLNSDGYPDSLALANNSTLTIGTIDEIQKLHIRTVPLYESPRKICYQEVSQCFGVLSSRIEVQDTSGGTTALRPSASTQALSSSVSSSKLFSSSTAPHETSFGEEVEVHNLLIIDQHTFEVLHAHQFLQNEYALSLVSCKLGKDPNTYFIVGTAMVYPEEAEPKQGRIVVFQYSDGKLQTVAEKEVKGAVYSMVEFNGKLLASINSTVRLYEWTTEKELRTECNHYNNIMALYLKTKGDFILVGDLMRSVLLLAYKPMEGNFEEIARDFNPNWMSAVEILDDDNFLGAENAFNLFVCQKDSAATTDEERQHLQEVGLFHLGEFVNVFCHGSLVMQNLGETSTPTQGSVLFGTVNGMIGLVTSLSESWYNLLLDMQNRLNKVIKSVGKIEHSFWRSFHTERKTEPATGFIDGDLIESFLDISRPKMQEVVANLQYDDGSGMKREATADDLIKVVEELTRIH
T1 sequence (Q13422 whole entry, the tested form may be a part): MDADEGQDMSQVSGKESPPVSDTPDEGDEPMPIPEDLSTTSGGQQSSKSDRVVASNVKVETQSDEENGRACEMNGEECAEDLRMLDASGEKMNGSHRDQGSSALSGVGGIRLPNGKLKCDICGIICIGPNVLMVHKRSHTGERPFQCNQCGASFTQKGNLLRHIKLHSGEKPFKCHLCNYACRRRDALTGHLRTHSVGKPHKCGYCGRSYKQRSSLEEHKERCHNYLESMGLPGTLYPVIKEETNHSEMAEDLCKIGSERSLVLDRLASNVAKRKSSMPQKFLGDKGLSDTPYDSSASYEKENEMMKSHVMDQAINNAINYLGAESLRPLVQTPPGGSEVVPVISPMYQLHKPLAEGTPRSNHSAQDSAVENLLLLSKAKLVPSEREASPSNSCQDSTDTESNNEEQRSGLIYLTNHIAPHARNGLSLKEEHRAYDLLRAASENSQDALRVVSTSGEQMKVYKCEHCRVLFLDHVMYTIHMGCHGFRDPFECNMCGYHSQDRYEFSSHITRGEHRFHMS

SMILES	DC50 [1] [nM]	DC50 [2] [nM]
CC(C)Oc1cc2nn([C@H]3CC[C@H](CN4CC[C@@H](c5ccc6c(C7CCC(=O)NC7=O)nn(C)c6c5)[C@H](O)C4)CC3)cc2cc1C(=O)Nc1cccn([C@H]2C[C@H]2F)c1=O (stereo partly drawn) [Example 129, 2-((1S,4S)-4-(((3S,4S)-4-(3-(2,6-dioxopiperidin-3-yl)-1-methyl-1H-indazol-6-yl)-3-hydroxypiperidin-1-yl)methyl)cyclohexyl)-N-(1-((1S,2R)-2-fluorocyclopropyl)-2-oxo-1,2-dihydropyridin-3-yl)-6-isopropoxy-2H-indazole-5-carboxamide]	> 10000	< 10
CC(C)Oc1cc2nc(C3CCN(CC(=O)N4CCC(c5ccc(NC6CCC(=O)NC6=O)cc5)CC4)CC3)cn2cc1C(=O)Nc1cccc(C(F)F)n1 (stereo not shown) [Example 105, N-[6-(difluoromethyl)-2-pyridyl]-2-[1-[2-[4-[4-[(2,6-dioxo-3-piperidyl)amino]phenyl]-1-piperidyl]-2-oxo-ethyl]-4-piperidyl]-7-isopropoxy-imidazo[1,2-a]pyridine-6-carboxamide]	> 10000	10 to 100
CC(C)Oc1cc2nc(C3CCN(C(=O)CC4(O)CCN(c5ccc(NC6CCC(=O)NC6=O)cc5Cl)CC4)CC3)cn2cc1C(=O)Nc1cccc(C(F)F)n1 (stereo not shown) [Example 73, 2-[1-[2-[1-[2-chloro-4-[(2,6-dioxo-3-piperidyl)amino]phenyl]-4-hydroxy-4-piperidyl]acetyl]-4-piperidyl]-N-[6-(difluoromethyl)-2-pyridyl]-7-isopropoxy-imidazo[1,2-a]pyridine-6-carboxamide]	> 10000	< 10
CC(C)Oc1cc2nc(C3CCN(C(=O)CN4CCC(c5ccc(C6CCC(=O)NC6=O)cc5)CC4)CC3)cn2cc1C(=O)Nc1cccc(C(F)F)n1 (stereo not shown) [Example 68, N-[6-(difluoromethyl)-2-pyridyl]-2-[1-[2-[4-[4-(2,6-dioxo-3-piperidyl)phenyl]-1-piperidyl]acetyl]-4-piperidyl]-7-isopropoxy-imidazo[1,2-a]pyridine-6-carboxamide]	> 10000	10 to 100
CC(C)Oc1cc2nn(C3CCN(C(=O)CN4CCC(c5ccc(NC6CCC(=O)NC6=O)cc5)CC4)CC3)cc2cc1C(=O)Nc1cnn2cccnc12 (stereo not shown) [Example 55, 2-(1-(2-(4-(4-((2,6-dioxopiperidin-3-yl)amino)phenyl)piperidin-1-yl)acetyl)piperidin-4-yl)-6-isopropoxy-N-(pyrazolo[1,5-a]pyrimidin-3-yl)-2H-indazole-5-carboxamide]	> 10000	< 10
CC(C)Oc1cc2nn([C@H]3CC[C@H](CN4CCC(c5ccc(OC6CCC(=O)NC6=O)cc5)CC4)CC3)cc2cc1C(=O)Nc1cnn2cccnc12 (stereo partly shown) [Example 115, 2-((1r,4r)-4-((4-(4-((2,6-dioxopiperidin-3-yl)oxy)phenyl)piperidin-1-yl)methyl)cyclohexyl)-6-isopropoxy-N-(pyrazolo[1,5-a]pyrimidin-3-yl)-2H-indazole-5-carboxamide]	> 10000	< 10
CC(C)Oc1cc2nc(C3CCN(C(=O)CN4CCC(c5ccc(C6CCC(=O)NC6=O)cc5)CC4)CC3)cn2cc1C(=O)Nc1cnn2cccnc12 (stereo not shown) [Example 87, 2-[1-[2-[4-[4-(2,6-dioxo-3-piperidyl)phenyl]-1-piperidyl]acetyl]-4-piperidyl]-7-isopropoxy-N-pyrazolo[1,5-a]pyrimidin-3-yl-imidazo[1,2-a]pyridine-6-carboxamide]	> 10000	< 10
CC(C)Oc1cc2nc([C@H]3CC[C@H](CN4CCC(c5ccc(OC6CCC(=O)NC6=O)cc5)CC4)CC3)cn2cc1C(=O)Nc1cnn2cccnc12 (stereo partly shown) [Example 50, 2-[4-[[4-[4-[(2,6-dioxo-3-piperidyl)oxy]phenyl]-1-piperidyl]methyl]cyclohexyl]-7-isopropoxy-N-pyrazolo[1,5-a]pyrimidin-3-yl-imidazo[1,2-a]pyridine-6-carboxamide]	> 10000	< 10
